Patent publication US9232796B2, “Herbicidal compositions comprising 4-amino-3-chloro-5-fluoro-6-(4-chloro-2-fluoro-3-methoxyphenyl) pyridine-2-carboxylic acid or a derivative thereof and acetyl-CoA carboxylase (ACCase) inhibitors” (DOW AGROSCIENCES LLC, priority 2012, dated 2016)
Several values for one entry are separate records, joined by “and”; a condition that tells them apart may be missing. Equal entries are not always repeated.

How the values were obtained:
[1] = test system: IPOHE; assay: Example I postemergence foliar-applied, greenhouse, direct seeded rice weeds; assay type: in vivo, Ipomoea hederacea Jacq.
How it was run: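 Postemergence greenhouse test: SC-formulated Compound A and ACCase-inhibitor partners were applied over-the-top in crop oil concentrate (1.25% v/v) at 187 L/ha. Visual ratings of injury on a 0–100% scale were taken after roughly 3 weeks.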

[2] = test system: ISCRU; assay: as above; assay type: in vivo, Ischaemum rugosum Salisb.
From the text: Seeds or nutlets of the desired test plant species were planted in a soil matrix prepared by mixing a loam or sandy loam soil (e.g., 28.6 percent silt, 18.8 percent clay, and 52.6 percent sand, with a pH of about 5.8 and an organic matter content of about 1.8 percent) and calcareous grit in an 80 to 20 ratio. The soil matrix was contained in plastic pots with a volume of 1 quart and a surface area of 83.6 square centimeters (cm^2). When required to ensure good germination and healthy plants, a fungicide treatment and/or other chemical or physical treatment was applied. The plants were grown for 8-22 days in a greenhouse with an approximate 14 hr. photoperiod which was maintained at about 29° C. during the day and 26° C. during the night. Nutrients (Peters Excel® 15-5-15 5-Ca 2-Mg and iron chelate) were applied in the irrigation solution as needed and water was added on a regular basis. Supplemental lighting was provided with overhead metal halide 1000-Watt lamps as necessary. The plants were employed for testing when they reached the first through fourth true leaf stage.
Treatments consisted of the acid or esters of 4-amino-3-chloro-5-fluoro-6-(4-chloro-2-fluoro-3-methoxy-phenyl)pyridine-2-carboxylic acid (Compound A), each formulated as an SC (suspension concentrate), and various herbicidal components alone and in combination.
Other herbicidal components were applied on an acid equivalent (ae) or active ingredient (ai) basis and included acetyl coA carboxylase (ACCase)-inhibiting herbicides (cyclohexanedione and aryloxyphenoxypropionate chemical classes) cyhalofop-butyl formulated as Clincher® SF (285 gr ai/L EC), diclofop-methyl formulated as Hoelon® 3EC, fenoxaprop-p-ethyl+isoxadifen-ethyl formulated as RiceStar® HT (0.58 lb./gal EC), fenoxaprop-p-ethyl+mefenpyr diethyl formulated as Puma® IEC, metamifop formulated as Metamifop EC, haloxyfop-methyl formulated as Gallant Super®, fluazifop-p-butyl formulated as Fusilade® DX, quizalofop-p-ethyl formulated as Assure® II, profoxydim formulated as Aura® 20EC, clethodim applied as Intensity®, sethoxydim formulated as Poast®, and tralkoxydim formulated as Achieve®.
Treatment requirements were calculated based upon the rates being tested, the concentration of active ingredient or acid equivalent in the formulation, and a 12 mL application volume at a rate of 187 L/ha.
For treatments comprised of formulated compounds, measured amounts of compounds were placed individually in 25 mL glass vials and diluted in a volume of 1.25% (v/v) Agri-Dex® crop oil concentrated to obtain 12× stock solutions. […] Application solutions were prepared by adding an appropriate amount of each stock solution (e.g., 1 mL) and diluted to the appropriate final concentrations with the addition of 10 mL of an aqueous mixture of 1.25% (v/v) crop oil concentrate so that the final spray solutions contained 1.25+/−0.05% (v/v) crop oil concentrate.
All stock solutions and applications solutions were visually inspected for compound compatibility prior to application. […]
The treated plants and control plants were placed in a greenhouse as described above and watered by sub-irrigation to prevent wash-off of the test compounds. After approximately 3 weeks, the condition of the test plants as compared with that of the untreated plants was determined visually and scored on a scale of 0 to 100 percent where 0 corresponds to no injury or growth inhibition and 100 corresponds to complete kill. […]

[3] = test system: ECHOR; assay: Example II in-water applied, greenhouse, transplanted paddy rice weeds; assay type: in vivo, Echinochloa oryzoides (Ard.) Fritsch
Procedure: (§1) Weed seeds or nutlets of the desired test plant species were planted in puddled soil (mud) prepared by mixing a shredded, non-sterilized mineral soil (50.5 percent silt, 25.5 percent clay, and 24 percent sand, with a pH of about 7.6 and an organic matter content of about 2.9 percent) and water at a 1:1 volumetric ratio. The prepared mud was dispensed in 365 mL aliquots into 16-ounce (oz.) non-perforated plastic pots with a surface area of 86.59 square centimeters (cm^2) leaving a headspace of 3 centimeters (cm) in each pot. Mud was allowed to dry overnight prior to planting or transplanting. Rice seeds were planted in Sun Gro MetroMix® 306 planting mixture, which typically has a pH of 6.0 to 6.8 and an organic matter content of about 30 percent, in plastic plug trays. Seedlings at the second or third leaf stage of growth were transplanted into 860 mL of mud contained in 32-oz. non-perforated plastic pots with a surface area of 86.59 cm^2 4 days prior to herbicide application. The paddy was created by filling the headspace of the pots with 2.5 to 3 cm of water. […] The plants were grown for 4-22 days in a greenhouse with an approximate 14 hr. photoperiod which was maintained at about 29° C. during the day and 26° C. during the night. Nutrients were added as Osmocote® (19:6:12, N:P:K+minor nutrients) at 2 g per 16-oz. pot and 4 g per 32-oz. pot. Water was added on a regular basis to maintain the paddy flood, and supplemental lighting was provided with overhead metal halide 1000-Watt lamps as necessary. The plants were employed for testing when they reached the first through fourth true leaf stage.
(§2) Treatments consisted of the acid or esters of 4-amino-3-chloro-5-fluoro-6-(4-chloro-2-fluoro-3-methoxy-phenyl)pyridine-2-carboxylic acid (compound A) each formulated as an SC (suspension concentrate) and various herbicidal components alone and in combination.
(§3) For formulated compounds, a measured amount was placed in an individual 100 or 200 mL glass vial and was dissolved in a volume of 1.25% (v/v) Agri-Dex® crop oil concentrate to obtain application solutions.
(§4) Applications were made by injecting with a pipetter appropriate amounts of the application solutions, individually and sequentially, into the aqueous layer of the paddy. Control plants were treated in the same manner with the solvent blank. Applications were made so that all treated plant material received the same concentrations of acetone and crop oil concentrate.
(§5) The treated plants and control plants were placed in a greenhouse as described above and water was added as needed to maintain a paddy flood. After approximately 3 weeks the condition of the test plants as compared with that of the untreated plants was determined visually and scored on a scale of 0 to 100 percent where 0 corresponds to no injury or growth inhibition and 100 corresponds to complete kill.
(§6) Colby's equation was used to determine the herbicidal effects expected from the mixtures (Colby, S. R. 1967. Calculation of the synergistic and antagonistic response of herbicide combinations. Weeds 15:20-22.).
(§7) The following equation was used to calculate the expected activity of mixtures containing two active ingredients, A and B: Expected=A+B−(A×B/100)

[4] = test system: SCPMA; assay: as above; assay type: in vivo, Schoenoplectus maritimus (L.) Lye
Procedure: as §1, §2, §3, §4, §5, §6, §7

## COc1c(Cl)ccc(-c2nc(C(=O)OCc3ccccc3)c(Cl)c(N)c2F)c1F [Compound A Benzyl Ester, benzyl ester of 4-amino-3-chloro-5-fluoro-6-(4-chloro-2-fluoro-3-methoxy-phenyl)pyridine-2-carboxylic acid]
[1]; 4.38 gae/ha
  Visual Weed Control (%) - 19 DAA IPOHE Obs: 0%
[1]; 8.75 gae/ha
  Visual Weed Control (%) - 19 DAA IPOHE Obs: 0%
[1]; 16 gae/ha
  Visual Weed Control (%) - 21 DAA IPOHE Obs: 10%
[1]; 32 gae/ha
  Visual Weed Control (%) - 21 DAA IPOHE Obs: 25%
  Visual Weed Control (%) - 22 DAA IPOHE Obs: 45%
[2]; 8.75 gae/ha
  Visual Weed Control (%) - 26 DAA ISCRU Obs: 18%
[2]; 17.5 gae/ha
  Visual Weed Control (%) - 26 DAA ISCRU Obs: 33%
[3]; in-water, 4.38 gae/ha
  Visual Weed Control (%) - 21 DAA ECHOR Obs: 0%
[3]; in-water, 8 gae/ha
  Visual Weed Control (%) - 21 DAA ECHOR Obs: 10% and 8%
[3]; in-water, 8.75 gae/ha
  Visual Weed Control (%) - 21 DAA ECHOR Obs: 10% and 15%
  Visual Weed Control (%) - 25 DAA ECHOR Obs: 85%
[3]; in-water, 17.5 gae/ha
  Visual Weed Control (%) - 25 DAA ECHOR Obs: 90%
[3]; in-water, 35 gae/ha
  Visual Weed Control (%) - 25 DAA ECHOR Obs: 100%
[3]; in-water, 48 gae/ha
  Visual Weed Control (%) - 21 DAA ECHOR Obs: 78%
[3]; in-water, 96 gae/ha
  Visual Weed Control (%) - 21 DAA ECHOR Obs: 80%
[4]; 35 gae/ha
  Visual Weed Control (%) - 19 DAA SCPMA Obs: 0%

## C[C@@H](Oc1ccc(Oc2nc3ccc(Cl)cc3o2)cc1)C(=O)N(C)c1ccccc1F [Metamifop, (2R)-2-[4-[(6-chloro-2-benzoxazolyl)oxy]phenoxy]-N-(2-fluorophenyl)-N-methylpropanamide]
[1]; 9.38 gai/ha
  Visual Weed Control (%) - 22 DAA IPOHE Obs: 0%
[1]; 18.75 gai/ha
  Visual Weed Control (%) - 22 DAA IPOHE Obs: 0%
[1]; 37.5 gai/ha
  Visual Weed Control (%) - 22 DAA IPOHE Obs: 0%
[1]; 150 gai/ha
  Visual Weed Control (%) - 24 DAA IPOHE Obs: 0%
[3]; in-water, 50 gai/ha
  Visual Weed Control (%) - 21 DAA ECHOR Obs: 20%
[4]; 75 gai/ha
  Visual Weed Control (%) - 21 DAA SCPMA Obs: 0%
[4]; 150 gai/ha
  Visual Weed Control (%) - 21 DAA SCPMA Obs: 0%

## CCC/C(=N\OCC(C)Oc1ccc(Cl)cc1)C1=C(O)CC(C2CCCSC2)CC1=O (stereo not drawn) [Profoxydim, 2-[1-[[2-(4-chlorophenoxy)propoxy]imino]butyl]-3-hydroxy-5-(tetrahydro-2H-thiopyran-3-yl)-2-cyclohexen-1-one, reference compound]
[3]; in-water, 25 gai/ha
  Visual Weed Control (%) - 21 DAA ECHOR Obs: 0%

## CCOC(=O)[C@@H](C)Oc1ccc(Oc2cnc3cc(Cl)ccc3n2)cc1 [Quizalofop-p-ethyl, ethyl(2R)-2-[4-[(6-chloro-2-quinoxalinyl)oxy]phenoxy]propanoate, reference compound]
[1]; 1.88 gai/ha
  Visual Weed Control (%) - 22 DAA IPOHE Obs: 0%
[1]; 3.75 gai/ha
  Visual Weed Control (%) - 22 DAA IPOHE Obs: 0%
[1]; 7.5 gai/ha
  Visual Weed Control (%) - 22 DAA IPOHE Obs: 0%
[1]; 15 gai/ha
  Visual Weed Control (%) - 20 DAA IPOHE Obs: 0%
[1]; 30 gai/ha
  Visual Weed Control (%) - 20 DAA IPOHE Obs: 0%
[3]; in-water, 15 gai/ha
  Visual Weed Control (%) - 21 DAA ECHOR Obs: 0%
[3]; in-water, 30 gai/ha
  Visual Weed Control (%) - 21 DAA ECHOR Obs: 60%

## COc1c(Cl)ccc(-c2nc(C(=O)O)c(Cl)c(N)c2F)c1F [Compound A Acid, 4-amino-3-chloro-6-(4-chloro-2-fluoro-3-methoxyphenyl)-5-fluoropyridine-2-carboxylic acid]
[1]; 4.38 gae/ha
  Visual Weed Control (%) - 19 DAA IPOHE Obs: 0%
  Visual Weed Control (%) - 20 DAA IPOHE Obs: 10% and 0%
  Visual Weed Control (%) - 24 DAA IPOHE Obs: 10%
[1]; 8.75 gae/ha
  Visual Weed Control (%) - 19 DAA IPOHE Obs: 10%
  Visual Weed Control (%) - 20 DAA IPOHE Obs: 30% and 20%
  Visual Weed Control (%) - 24 DAA IPOHE Obs: 10%
[1]; 17.5 gae/ha
  Visual Weed Control (%) - 19 DAA IPOHE Obs: 35%
  Visual Weed Control (%) - 20 DAA IPOHE Obs: 40%
  Visual Weed Control (%) - 24 DAA IPOHE Obs: 30%
[1]; 19.4 gae/ha
  Visual Weed Control (%) - 20 DAA IPOHE Obs: 15%
[2]; 8.75 gae/ha
  Visual Weed Control (%) - 26 DAA ISCRU Obs: 37%
[2]; 17.5 gae/ha
  Visual Weed Control (%) - 26 DAA ISCRU Obs: 63%
[3]; 8.75 gae/ha in-water
  Visual Weed Control (%) - 25 DAA ECHOR Obs: 0%
[3]; 17.5 gae/ha in-water
  Visual Weed Control (%) - 25 DAA ECHOR Obs: 0%
[3]; 35 gae/ha in-water
  Visual Weed Control (%) - 25 DAA ECHOR Obs: 40%
[3]; in-water, 8.75 gae/ha
  Visual Weed Control (%) - 21 DAA ECHOR Obs: 0%
[3]; in-water, 10.6 gae/ha
  Visual Weed Control (%) - 21 DAA ECHOR Obs: 0%
[3]; in-water, 21.2 gae/ha
  Visual Weed Control (%) - 21 DAA ECHOR Obs: 15%
[3]; in-water, 35 gae/ha
  Visual Weed Control (%) - 21 DAA ECHOR Obs: 15% and 30%
[3]; in-water, 42.4 gae/ha
  Visual Weed Control (%) - 21 DAA ECHOR Obs: 15%
[3]; in-water, Compound A Acid 8.75 gae/ha
  Visual Weed Control (%) - 21 DAA ECHOR Obs: 10%
[3]; in-water, Compound A Acid 17.5 gae/ha
  Visual Weed Control (%) - 21 DAA ECHOR Obs: 15%
[3]; in-water, Compound A Acid 35 gae/ha
  Visual Weed Control (%) - 21 DAA ECHOR Obs: 20%
[4]; 35 gae/ha
  Visual Weed Control (%) - 21 DAA SCPMA Obs: 0%

## CCCCOC(=O)[C@@H](C)Oc1ccc(Oc2ccc(C#N)cc2F)cc1 [Cyhalofop-butyl, butyl(2R)-2-[4-(4-cyano-2-fluorophenoxy)phenoxy]propanoate, reference compound]
[1]; 280 gai/ha
  Visual Weed Control (%) - 20 DAA IPOHE Obs: 0%
[2]; 140 gai/ha
  Visual Weed Control (%) - 26 DAA ISCRU Obs: 10%
[3]; 90 gai/ha, in-water
  Visual Weed Control (%) - 25 DAA ECHOR Obs: 0%
[3]; in-water, 90 gai/ha
  Visual Weed Control (%) - 25 DAA ECHOR Obs: 0%
[4]; 180 gai/ha
  Visual Weed Control (%) - 19 DAA SCPMA Obs: 0%
